Assay: UV-vis absorption, stability constant by modified Benesi-Hildebrand equation
Type: physicochemical
Settings: UV absorption spectra, ethanol/water (50%, v/v), 1:1 host-guest complex assumed
Experimental: Furthermore, absorption spectra obtained with various concentrations of β-CD (0 to 1.44 mmol/L) and added to a constant drug (0.03753 mmol/L UA or 0.038715 mmol/L OA) concentration in ethanol/water (50%, v/v) were scanned by the UV spectrophotometry (Shimadzu UV-2401 visible spectrophotometer, Shimadzu Corp., Tokyo, Japan). The stability constant was calculated according to the modified Benesi-Hildebrand equation Eq. (1) assuming the formation of a 1:1 host-guest complex^[[14]^].
(1) 1/ΔA=1/KΔε[D]01/[CD]0+1/Δε[D]0 Where ΔA was the change in absorbance of drugs at λmax in the presence and absence of β-CD. [D]0 and [CD]0 were the total concentration of added drug and β-CD, respectively. Δε represented the difference in molar absorptivities between the free drug and the inclusion complex, and K was the stability constant.

| SMILES | stability constant K [L/mol] |
| --- | --- |
| CC1(C)CC[C@]2(C(=O)O)CC[C@]3(C)C(=CC[C@@H]4[C@@]5(C)CC[C@H](O)C(C)(C)[C@@H]5CC[C@]43C)[C@@H]2C1 [OA, oleanolic acid] | 5157 |
| C[C@H]1[C@H](C)CC[C@]2(C(=O)O)CC[C@]3(C)C(=CC[C@@H]4[C@@]5(C)CC[C@H](O)C(C)(C)[C@@H]5CC[C@]43C)[C@H]12 [UA, ursolic acid] | 5642 |

Source: paper PMC5706432, “Host-guest interaction of β-cyclodextrin with isomeric ursolic acid and oleanolic acid: physicochemical characterization and molecular modeling study” (Journal of Biomedical Research, 2017)
